Source: the NIST ThermoML archive (doi:10.1021/acs.jced.8b01146)
Several values for one entry are separate records, joined by “and”; a condition that tells them apart may be missing. Identical values can stand only once.

Key:
[1] = excess molar enthalpy (molar enthalpy of mixing); xn = mol fraction of the nth substance listed; settings: 100 kPa, Liquid, Calvet calorimetry
[2] = xn = mol fraction of the nth substance listed; settings: 100 kPa, Liquid, Vibrating tube method

CCC1CCC(=O)O1 (stereo not given) [2(3H)-furanone, 5-ethyldihydro-] + O
Settings	excess molar enthalpy, [1]	mass density, [2]
288.15 K, x1 = 0.000808	-0.0011 kcal/mol	999.463 kg/m3 and 999.462 kg/m3
288.15 K, x1 = 0.001615	-0.00217 kcal/mol	999.823 kg/m3
288.15 K, x1 = 0.001616	-0.00217 kcal/mol	999.824 kg/m3
288.15 K, x1 = 0.002421	-0.00322 kcal/mol	1000.19 kg/m3
288.15 K, x1 = 0.002422	-0.00321 kcal/mol	1000.19 kg/m3
288.15 K, x1 = 0.003226	-0.00418 kcal/mol	1000.55 kg/m3 and 1000.54 kg/m3
288.15 K, x1 = 0.004029	-0.00515 kcal/mol	1000.9 kg/m3
288.15 K, x1 = 0.004831	-0.00608 kcal/mol	1001.26 kg/m3
288.15 K, x1 = 0.004832	-0.00607 kcal/mol	1001.26 kg/m3
298.15 K, x1 = 0.000808	-0.000746 kcal/mol and -0.000743 kcal/mol	997.357 kg/m3 and 997.355 kg/m3
298.15 K, x1 = 0.001615	-0.00146 kcal/mol	997.666 kg/m3
298.15 K, x1 = 0.002421	-0.00215 kcal/mol	997.974 kg/m3
298.15 K, x1 = 0.002422	-0.00215 kcal/mol	997.975 kg/m3
298.15 K, x1 = 0.003226	-0.00277 kcal/mol and -0.00278 kcal/mol	998.276 kg/m3
298.15 K, x1 = 0.004029	-0.00339 kcal/mol and -0.0034 kcal/mol	998.58 kg/m3
298.15 K, x1 = 0.004831	-0.004 kcal/mol	998.888 kg/m3
298.15 K, x1 = 0.004832	-0.00401 kcal/mol	998.888 kg/m3
308.15 K, x1 = 0.000809	-0.000394 kcal/mol	994.296 kg/m3
308.15 K, x1 = 0.001616	-0.000758 kcal/mol	994.558 kg/m3
308.15 K, x1 = 0.001617	-0.000762 kcal/mol	994.559 kg/m3
308.15 K, x1 = 0.002422	-0.00109 kcal/mol	994.819 kg/m3
308.15 K, x1 = 0.002423	-0.0011 kcal/mol	994.819 kg/m3
308.15 K, x1 = 0.003227	-0.00141 kcal/mol	995.082 kg/m3
308.15 K, x1 = 0.003228	-0.0014 kcal/mol	995.075 kg/m3
308.15 K, x1 = 0.004031	-0.00169 kcal/mol	995.334 kg/m3
308.15 K, x1 = 0.004032	-0.00169 kcal/mol	995.334 kg/m3
308.15 K, x1 = 0.004834	-0.00193 kcal/mol	995.586 kg/m3
308.15 K, x1 = 0.004835	-0.00196 kcal/mol	995.586 kg/m3
318.15 K, x1 = 0.000808	-4.92e-05 kcal/mol	990.434 kg/m3
318.15 K, x1 = 0.001615	-7.07e-05 kcal/mol	990.653 kg/m3
318.15 K, x1 = 0.001616	-7.12e-05 kcal/mol	990.654 kg/m3
318.15 K, x1 = 0.002421	-6.91e-05 kcal/mol	990.873 kg/m3
318.15 K, x1 = 0.002422	-6.79e-05 kcal/mol	990.873 kg/m3
318.15 K, x1 = 0.003226	-4.04e-05 kcal/mol	991.088 kg/m3
318.15 K, x1 = 0.003227	-4.28e-05 kcal/mol	991.089 kg/m3
318.15 K, x1 = 0.004029	8.13e-06 kcal/mol	991.301 kg/m3
318.15 K, x1 = 0.00403	1.51e-05 kcal/mol	991.301 kg/m3
318.15 K, x1 = 0.004832	8.6e-05 kcal/mol	991.512 kg/m3
318.15 K, x1 = 0.004833	9.01e-05 kcal/mol	991.512 kg/m3

CC1=CCC(=O)O1 [5-methylfuran-2(3H)-one] + O
Settings	excess molar enthalpy, [1]	mass density, [2]
288.15 K, x1 = 0.001003	-0.000397 kcal/mol and -0.000394 kcal/mol	999.878 kg/m3 and 999.871 kg/m3
288.15 K, x1 = 0.002004	-0.000729 kcal/mol	1000.64 kg/m3
288.15 K, x1 = 0.002005	-0.000727 kcal/mol	1000.64 kg/m3
288.15 K, x1 = 0.003003	-0.00101 kcal/mol	1001.39 kg/m3
288.15 K, x1 = 0.003004	-0.00101 kcal/mol	1001.39 kg/m3
288.15 K, x1 = 0.004	-0.00125 kcal/mol	1002.15 kg/m3
288.15 K, x1 = 0.004001	-0.00123 kcal/mol	1002.14 kg/m3
288.15 K, x1 = 0.004995	-0.00143 kcal/mol	1002.91 kg/m3
288.15 K, x1 = 0.004996	-0.00141 kcal/mol	1002.92 kg/m3
288.15 K, x1 = 0.00599	-0.00152 kcal/mol and -0.00155 kcal/mol	1003.65 kg/m3 and 1003.64 kg/m3
298.15 K, x1 = 0.001003	-2.65e-05 kcal/mol	997.759 kg/m3
298.15 K, x1 = 0.001004	-2.65e-05 kcal/mol	997.756 kg/m3
298.15 K, x1 = 0.002004	-6.21e-06 kcal/mol	998.467 kg/m3
298.15 K, x1 = 0.002006	-6.21e-06 kcal/mol	998.464 kg/m3
298.15 K, x1 = 0.003003	6.57e-05 kcal/mol	999.156 kg/m3
298.15 K, x1 = 0.003005	6.05e-05 kcal/mol	999.156 kg/m3
298.15 K, x1 = 0.004	0.000175 kcal/mol	999.847 kg/m3
298.15 K, x1 = 0.004003	0.000175 kcal/mol	999.843 kg/m3
298.15 K, x1 = 0.004993	0.000335 kcal/mol	1000.51 kg/m3
298.15 K, x1 = 0.004998	0.000332 kcal/mol	1000.53 kg/m3
298.15 K, x1 = 0.005987	0.000559 kcal/mol	1001.2 kg/m3
298.15 K, x1 = 0.005992	0.000571 kcal/mol	1001.21 kg/m3
308.15 K, x1 = 0.001003	0.000327 kcal/mol and 0.000325 kcal/mol	994.684 kg/m3
308.15 K, x1 = 0.002003	0.000693 kcal/mol	995.33 kg/m3
308.15 K, x1 = 0.002004	0.000693 kcal/mol	995.328 kg/m3
308.15 K, x1 = 0.003002	0.0011 kcal/mol	995.967 kg/m3
308.15 K, x1 = 0.003003	0.0011 kcal/mol	995.967 kg/m3
308.15 K, x1 = 0.003999	0.00155 kcal/mol	996.597 kg/m3
308.15 K, x1 = 0.004	0.00153 kcal/mol	996.594 kg/m3
308.15 K, x1 = 0.004994	0.00204 kcal/mol	997.199 kg/m3
308.15 K, x1 = 0.004995	0.00202 kcal/mol	997.205 kg/m3
308.15 K, x1 = 0.005987	0.00257 kcal/mol	997.78 kg/m3
308.15 K, x1 = 0.00599	0.00258 kcal/mol	997.837 kg/m3
318.15 K, x1 = 0.001003	0.000667 kcal/mol	990.808 kg/m3 and 990.803 kg/m3
318.15 K, x1 = 0.002003	0.00136 kcal/mol and 0.00137 kcal/mol	991.392 kg/m3 and 991.396 kg/m3
318.15 K, x1 = 0.003002	0.00211 kcal/mol and 0.0021 kcal/mol	991.977 kg/m3 and 991.98 kg/m3
318.15 K, x1 = 0.003998	0.00286 kcal/mol	992.55 kg/m3
318.15 K, x1 = 0.003999	0.00286 kcal/mol	992.546 kg/m3
318.15 K, x1 = 0.004993	0.00369 kcal/mol and 0.00367 kcal/mol	993.112 kg/m3 and 993.102 kg/m3
318.15 K, x1 = 0.005986	0.00455 kcal/mol	993.663 kg/m3
318.15 K, x1 = 0.005987	0.00456 kcal/mol	993.668 kg/m3
